Experimental data taken from patent US12521397B2, “Nucleotide analogs” (The Regents of the University of California, priority 2014, dated 2026).
Where two headings read alike, the source gives them in different places.

Tests used:
HPV-16 and HPV-18 = assay: High risk HPV origin plasmid replication assay (qPCR) in HEK 293 cells; assay type: cell-based, human papillomavirus; conditions: read-out: High Risk (EC50)
Procedure: (§1) An origin-containing low risk or high risk HPV plasmid was co-transfected with homologous E1 and E2 protein expression vectors into HEK 293 cells. At 4 h post-transfection, cells were treated with test compound dilutions and then incubated for 48 h. HPV origin plasmid replication was detected after digestion with DpnI and exonuclease III to remove unreplicated transfected plasmids. Remaining replicated DNA was quantified by quantitative real time PCR (qPCR). In a parallel experiment in uninfected cells cytotoxicity was determined by trypan blue exclusion or CELLTITER-GLO® to find the concentration that reduced viable cell number by 50% (CC50). CC50 values were determined by trypan blue exclusion or CELLTITER-GLO® and the selectivity index calculated (Selectivity index=CC50/EC50). The low risk HPV tested was HPV-11, and the high-risk HPV tested was HPV-16 and HPV-18.

HPV-11 = assay: Low risk HPV origin plasmid replication assay (qPCR) in HEK 293 cells; assay type: cell-based, human papillomavirus
Procedure: as §1

HEK-293 cells = assay: Cytotoxicity assay in HEK-293 cells (trypan blue exclusion or CellTiter-Glo); assay type: cell-based
Procedure: as §1
Cytotoxicity Assays in HEK-293 cells. Cytotoxicity assays are performed in concurrently with every antiviral assay using the same cell line and media to ensure the same compound exposure. For the antiviral studies against HPV11 in HEK-293 cells, transfected cells are seeded in duplicate plates. […] At 48 h following compound addition, CELLTITER-GLO® (Promega) is added to each well and luminescence is determined on a luminometer. […]

[1] = test system: human foreskin fibroblast (HFF) cells; assay: Cytotoxicity assay in primary human foreskin fibroblast cells (CellTiter-Glo); assay type: cell-based; conditions: 7d incubation
Procedure: Cytotoxicity Assays in Primary Human Foreskin Fibroblast Cells. Cytotoxicity was also evaluated in human foreskin fibroblast (HFF) cells as they are a highly sensitive indicator of toxicity in a standard assay with 7 d of compound exposure. A total of 4000 cells/well are seeded in 384-well plates in cell culture media containing 2% fetal bovine serum and antibiotics. Following a 24 h incubation, 5-fold compound dilutions are performed in duplicate wells directly in the plates containing monolayers of HFF cells. At 7 d following compound addition, CellTiter-Glo reagent is added to each well and resulting luminescence is measured on a luminometer to assess the number of viable cells in each well. Data are then used to calculate CC50 values.

[2] = low risk HPV tested was HPV-11, HEK 293 cells, 48 h incubation, read-out: Low Risk (EC50)

Compound: CCCCCCCCCCCCCCCCCCOCC(COP(=O)(O)COCCn1cnc2c(=O)[nH]c(N)nc21)OCc1ccccc1 (stereo not shown) [ODBG-PMEG, 1-O-Octadecyl-2-O-benzyl-sn-glyceryl PMEG]
- EC50 (HPV-16 and HPV-18; Human papillomavirus, HEK293, 48 h): 0.3 to 3 µM
- EC50 (HPV-11; Human papillomavirus, HEK293, low risk HPV tested was HPV-11, HEK 293 cells, 48 h incubation, read-out: Low Risk (EC50)): 0.3 to 3 µM

Compound: CCCCCCCCCCCCCCCCCCOCCOP(=O)(O)COCCn1cnc2c(=O)[nH]c(N)nc21 [ODE-PMEG, Octadecyloxyethyl-Phosphonomethoxyethylguanine]
- EC50 (HPV-16 and HPV-18; high-risk HPV tested was HPV-16 and HPV-18, HEK 293 cells, 48 h incubation): < 0.3 µM
- EC50 (HPV-11; [2]): < 0.3 µM

Compound: CCOC(=O)[C@H](C)NP(=O)(COCCn1cnc2c(=O)[nH]c(N)nc21)Oc1ccccc1 (stereo partly shown) [PMEG phenoxy amidate Example 10]
- CC50 (HEK-293 cells; CellTiter-Glo, 2d incubation, read-out: Cytotoxicity CC50, HEK 293 (2d incubation)): > 100 µM
- CC50 (HEK-293 cells; Table B, HEK-293 cells, parallel to HPV-11 antiviral assay, read-out: CC50): > 100 µM
- EC50 (HPV-11; Human papillomavirus, HEK293): 7.56 ± 0.63 µM
- EC90 (HPV-11; Human papillomavirus, HEK293): > 100 µM
- CC50 [1]: 70.9 ± 4.07 µM

Compound: Nc1nc2c(ncn2CCOCP(=O)(O)O)c(=O)[nH]1 [PMEG, 9-(2-phosphonylmethoxyethyl) guanine, reference compound]
- EC50 (HPV-11; [2]): 3 to 30 µM
